US20220242870A1, “HETEROCYCLE-FUSED PYRIMIDINE DERIVATIVE AND USE THEREOF” (VORONOI Inc., priority 2019, published 2022)

What was measured:
human FLT3-ITD enzyme = target: T1, human FLT3-ITD enzyme (Homo sapiens, UniProt P36888); experiment: FLT3 enzyme inhibitory ability (ADP-Glo kinase assay); assay type: biochemical; settings: human FLT3-ITD enzyme 10 ng, ATP 10 μM, 25° C. 1 hour
T1 sequence (P36888 1-993): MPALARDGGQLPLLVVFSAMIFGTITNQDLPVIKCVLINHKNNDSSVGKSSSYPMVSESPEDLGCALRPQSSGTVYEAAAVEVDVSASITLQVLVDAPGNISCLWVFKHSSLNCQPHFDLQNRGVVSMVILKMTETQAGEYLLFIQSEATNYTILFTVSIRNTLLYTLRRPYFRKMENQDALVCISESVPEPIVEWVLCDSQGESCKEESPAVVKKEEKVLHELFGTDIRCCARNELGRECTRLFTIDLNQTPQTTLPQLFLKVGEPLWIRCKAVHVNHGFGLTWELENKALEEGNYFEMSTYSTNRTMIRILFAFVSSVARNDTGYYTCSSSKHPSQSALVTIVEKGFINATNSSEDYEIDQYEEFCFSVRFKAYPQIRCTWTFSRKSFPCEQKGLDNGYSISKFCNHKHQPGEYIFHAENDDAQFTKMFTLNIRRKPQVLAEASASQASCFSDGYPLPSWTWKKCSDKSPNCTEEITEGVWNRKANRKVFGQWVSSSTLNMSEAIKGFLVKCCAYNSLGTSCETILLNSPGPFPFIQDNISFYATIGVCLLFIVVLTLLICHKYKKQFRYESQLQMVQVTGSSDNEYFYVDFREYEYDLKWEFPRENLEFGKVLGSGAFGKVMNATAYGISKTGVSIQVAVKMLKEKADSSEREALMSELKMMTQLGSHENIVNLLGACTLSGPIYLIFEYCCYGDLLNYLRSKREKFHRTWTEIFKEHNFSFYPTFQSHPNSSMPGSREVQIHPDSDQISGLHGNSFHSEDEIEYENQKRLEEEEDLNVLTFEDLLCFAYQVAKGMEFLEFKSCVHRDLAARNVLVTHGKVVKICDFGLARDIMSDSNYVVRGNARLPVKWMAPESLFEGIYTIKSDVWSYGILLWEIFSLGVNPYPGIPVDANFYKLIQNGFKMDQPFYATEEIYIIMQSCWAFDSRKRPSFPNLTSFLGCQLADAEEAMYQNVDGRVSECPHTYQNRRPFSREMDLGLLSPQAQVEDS
Summary of the method: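 Purified human FLT3-ITD (10 ng) with 10 μM ATP and specific substrate in 40 mM Tris-HCl pH 7.4, 20 mM MgCl2, 0.5 mg/mL BSA, 50 μM DTT, 1 h at 25 °C. ADP formation read by ADP-Glo luminescence; IC50 (nM) versus solvent-treated control.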

human GST-HPK1 (1-346) = target: T2, human GST-HPK1 (1-346) (Homo sapiens, UniProt Q92918); experiment: HPK1 enzyme inhibitory ability (ADP-Glo kinase assay); assay type: biochemical; settings: human GST-HPK1 3 ng, ATP 3 uM, 25° C. 2 hours
T2 construct: purified human GST-HPK1 (1-346, Signalchem) enzyme; purchased Signalchem
T2 sequence (Q92918 1-346): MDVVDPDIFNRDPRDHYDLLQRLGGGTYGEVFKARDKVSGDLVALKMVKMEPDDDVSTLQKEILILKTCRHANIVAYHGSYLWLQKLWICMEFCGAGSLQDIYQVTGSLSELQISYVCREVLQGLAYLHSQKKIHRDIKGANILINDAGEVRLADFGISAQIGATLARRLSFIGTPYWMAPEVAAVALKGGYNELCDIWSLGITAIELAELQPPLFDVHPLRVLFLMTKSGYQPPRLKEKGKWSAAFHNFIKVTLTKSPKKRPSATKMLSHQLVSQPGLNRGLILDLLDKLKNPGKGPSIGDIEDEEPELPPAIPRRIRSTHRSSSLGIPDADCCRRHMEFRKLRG
Summary of the method: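 Human GST-HPK1(1-346), 3 ng, reacted with 3 uM ATP and specific substrate in 40 mM Tris-HCl pH 7.4, 20 mM MgCl2, 0.5 mg/mL BSA, 50 uM DTT for 2 h at 25° C. ADP-Glo luminescence read; IC50 (nM) relative to untreated solvent control.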

MV4-11 cells = experiment: AML cell proliferation inhibitory activity (CellTiter-Glo); assay type: cell-based; settings: Homo sapiens, 72 hours
Procedure: The inhibitory activities of the example compounds according to the present invention on the proliferation of acute myeloid leukemia (AML) cells expressing the FLT3 mutant gene were evaluated. Specifically, RS4;11 and MV4-11 cells as acute myeloid leukemia cells expressing the FLT3 mutant gene were cultured in RPMI-1640 (Invitrogen) adding 10% FBS. The cells were seeded into each well of a clear bottom white 96-well plate (Corning) at 3000 to 5000 cells 24 hours before compound treatment. The compound was diluted in DMSO (diluted each three-fold, to a total of 12 concentrations) and injected at 0.5 μL each so as to be a final concentration of 0.3 nM to 50 μM. After 72 hours of the compound treatment, they were treated with CellTiter-Glo Luminescent Cell Viability assay (Promega) and stored at room temperature for 10 minutes, and luminescence intensities were measured with a reader (SynergyNeo, Biotek) to count viable cells. Each experiment was performed three times repeatedly. The result values were calculated as the cell growth rate (%) compared to the control treated with the solvent. The graph was derived using the GraphPad Prism program (version 5.0), the GI50 (nM) values were calculated, and the results were shown in Table 3 below.

MCF-7 cells = experiment: Breast cancer cell line proliferation inhibitory activity (CellTiter-Glo 2.0); assay type: cell-based; settings: Homo sapiens, MCF7, 120 hours
Summary of the method: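 MCF-7 cells exposed to a 12-point, 3-fold dilution series (final 0.00005–10 μM) for 120 h at 37 °C. Viability read by CellTiter-Glo 2.0 luminescence, expressed as percent of vehicle-treated cells. GI50 (nM) derived from the curves.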

Row | Compound | IC50 (human FLT3-ITD enzyme) [nM] | IC50 (human GST-HPK1 (1-346)) [nM] | GI50 (MV4-11 cells) [nM] | GI50 (MCF-7 cells) [nM]
1 | CN1CCN(c2ccc(Nc3nc(N4N=CCC4c4ccccc4)c4sccc4n3)cc2)CC1 (centres unmarked) [Example 1, N-(4-(4-methylpiperazin-1-yl)phenyl)-4-(5-phenyl-4,5-dihydro-1H-pyrazol-1-yl)thieno[3,2-d]pyrimidin-2-amine] | 250 to 500 | > 500 | > 500 | > 500
2 | CC(C)(O)CN1CCc2cc(Nc3nc(N4OCC[C@H]4c4ccccc4)c4cc[nH]c4n3)ccc2C1 [Example 111, (S)-2-methyl-1-(6-((4-(3-phenylisoxazolidin-2-yl)-7H-pyrrolo[2,3-d]pyrimidin-2-yl)amino)-3,4-dihydroisoquinolin-2(1H)-yl)propan-2-ol] | 250 to 500 | ≥ 250 | ≥ 250 | > 500
3 | COc1cc(Nc2nc(N3OCC[C@H]3c3ccccc3)c3sccc3n2)ccc1N1CCC(N2CCN(C)CC2)CC1 [Example 57, (S)-N-(3-methoxy-4-(4-(4-methylpiperazin-1-yl)piperidin-1-yl)phenyl)-4-(3-phenylisoxazolidin-2-yl)thieno[3,2-d]pyrimidin-2-amine] | 250 to 500 | > 500 | > 500 | > 500
4 | COc1cc(Nc2nc(N3OCC[C@H]3c3ccccc3)c3cc[nH]c3n2)ccc1N1CCC(N2CCN(C)CC2)CC1 [Example 87, (S)-N-(3-methoxy-4-(4-(4-methylpiperazin-1-yl)piperidin-1-yl)phenyl)-4-(3-phenylisoxazolidin-2-yl)-7H-pyrrolo[2,3-d]pyrimidin-2-amine] | 250 to 500 | ≥ 250 | ≥ 250 | > 500
5 | Clc1c[nH]c2nc(Nc3ccc4c(c3)CCNC4)nc(N3OCC[C@H]3c3ccccc3)c12 [Example 117, (S)-N-(5-chloro-4-(3-phenylisoxazolidin-2-yl)-7H-pyrrolo[2,3-d]pyrimidin-2-yl)-1,2,3,4-tetrahydroisoquinolin-6-amine] | ≥ 250 | ≥ 250 | > 500 | ≥ 250
6 | COc1cc(Nc2nc(N3N=CCC3c3ccccc3)c3sccc3n2)ccc1N1CCC(N2CCN(C)CC2)CC1 (centres unmarked) [Example 8, N-(3-methoxy-4-(4-(4-methylpiperazin-1-yl)piperidin-1-yl)phenyl)-4-(5-phenyl-4,5-dihydro-1H-pyrazol-1-yl)thieno[3,2-d]pyrimidin-2-amine] | > 500 | > 500 | ≥ 250 | > 500
7 | CCN(CC)CCCOc1c(C)cc(Nc2nc(N3OCC[C@H]3c3ccccc3)c3cc[nH]c3n2)cc1C [Example 101, (S)-N-(4-(3-(diethylamino)propoxy)-3,5-dimethylphenyl)-4-(3-phenylisoxazolidin-2-yl)-7H-pyrrolo[2,3-d]pyrimidin-2-amine] | ≥ 250 | ≥ 250 | > 500 | > 500
8 | COc1cc(N2CCN(C)CC2)ccc1Nc1nc(N2N=CCC2c2ccccc2)c2sccc2n1 (centres unmarked) [Example 6, N-(2-methoxy-4-(4-methylpiperazin-1-yl)phenyl)-4-(5-phenyl-4,5-dihydro-1H-pyrazol-1-yl)thieno[3,2-d]pyrimidin-2-amine] | > 500 | > 500 | > 500 | > 500
9 | c1ccc([C@@H]2CCON2c2nc(Nc3ccc4c(c3)CCNC4)nc3[nH]ccc23)cc1 [Example 110, (S)-N-(4-(3-phenylisoxazolidin-2-yl)-7H-pyrrolo[2,3-d]pyrimidin-2-yl)-1,2,3,4-tetrahydroisoquinolin-6-amine] | ≥ 250 | ≥ 250 | > 500 | 250 to 500
10 | c1ccc([C@@H]2CCON2c2nc(Nc3ccc4c(c3)CNCC4)nc3[nH]ccc23)cc1 [Example 104, (S)-N-(4-(3-phenylisoxazolidin-2-yl)-7H-pyrrolo[2,3-d]pyrimidin-2-yl)-1,2,3,4-tetrahydroisoquinolin-7-amine] | ≥ 250 | ≥ 250 | > 500 | > 500
11 | COc1cc(Nc2nc(N3N=CCC3c3ccccc3)c3sccc3n2)ccc1C(=O)NC1CCN(C)CC1 (centres unmarked) [Example 52, 2-methoxy-N-(1-methylpiperidin-4-yl)-4-((4-(5-phenyl-4,5-dihydro-1H-pyrazol-1-yl)thieno[3,2-d]pyrimidin-2-yl)amino)benzamide] | > 500 | – | ≥ 250 | –

The remaining lines, values ahead:

Row | IC50 (human FLT3-ITD enzyme) [nM] | IC50 (human GST-HPK1 (1-346)) [nM] | GI50 (MV4-11 cells) [nM] | GI50 (MCF-7 cells) [nM] | Compound
12 | 250 to 500 | ≥ 250 | 250 to 500 | > 500 | OCCN1CCN(C2CCN(c3ccc(Nc4nc(N5OCC[C@H]5c5ccccc5)c5cc[nH]c5n4)cc3)CC2)CC1 [Example 89, (S)-2-(4-(1-(4-((4-(3-phenylisoxazolidin-2-yl)-7H-pyrrolo[2,3-d]pyrimidin-2-yl)amino)phenyl)piperidin-4-yl)piperazin-1-yl)ethan-1-ol]
13 | ≥ 250 | ≥ 250 | 250 to 500 | > 500 | CN1CCN(c2ccc(Nc3nc(N4OCC[C@H]4c4cccs4)c4cc[nH]c4n3)cc2)CC1 [Example 77, (S)-N-(4-(4-methylpiperazin-1-yl)phenyl)-4-(3-(thiophen-2-yl)isoxazolidin-2-yl)-7H-pyrrolo[2,3-d]pyrimidin-2-amine]
14 | 250 to 500 | > 500 | > 500 | > 500 | COc1cccc([C@@H]2CCON2c2nc(Nc3ccc(N4CCN(C)CC4)cc3)nc3[nH]ccc23)c1 [Example 75, (S)-4-(3-(3-methoxyphenyl)isoxazolidin-2-yl)-N-(4-(4-methylpiperazin-1-yl)phenyl)-7H-pyrrolo[2,3-d]pyrimidin-2-amine]
15 | ≥ 250 | ≥ 250 | ≥ 250 | > 500 | CN1CCc2cc(Nc3nc(N4OCC[C@H]4c4ccccc4)c4cc[nH]c4n3)ccc2C1 [Example 109, (S)-2-methyl-N-(4-(3-phenylisoxazolidin-2-yl)-7H-pyrrolo[2,3-d]pyrimidin-2-yl)-1,2,3,4-tetrahydroisoquinolin-6-amine]
16 | ≥ 250 | ≥ 250 | > 500 | > 500 | CN1CCN(c2ccc(Nc3nc(N4OCC[C@H]4c4cccc(F)c4)c4cc[nH]c4n3)cc2)CC1 [Example 76, (S)-4-(3-(3-fluorophenyl)isoxazolidin-2-yl)-N-(4-(4-methylpiperazin-1-yl)phenyl)-7H-pyrrolo[2,3-d]pyrimidin-2-amine]
